Experimental data published in ChEMBL document CHEMBL4190235, “Polysubstituted 2-aminoimidazoles as anti-biofilm and antiproliferative agents: Discovery of potent lead” (Eur J Med Chem, 2017).
Calls of active or inactive are those of the source. The calls are words filed in the database; no cut-off is given here.

Key:
[1] = test system: Pseudomonas aeruginosa; experiment: Antibiofilm activity against Pseudomonas aeruginosa PA14 after 24 hrs by crystal violet staining based method; format: functional
[2] = test system: Pseudomonas aeruginosa; experiment: Inhibition of planktonic growth of Pseudomonas aeruginosa PA14 cells; format: organism-based
[3] = test system: Salmonella typhimurium; experiment: Antibiofilm activity against Salmonella typhimurium ATCC 14028 after 24 hrs by crystal violet staining based method; format: functional, Salmonella enterica subsp. enterica serovar Typhimurium
[4] = test system: Salmonella typhimurium; experiment: Inhibition of planktonic growth of Salmonella typhimurium ATCC 14028; format: organism-based, Salmonella enterica subsp. enterica serovar Typhimurium; conditions: Salmonella enterica
[5] = test system: Staphylococcus aureus; experiment: Antibiofilm activity against Staphylococcus aureus SH1000 after 48 hrs by crystal violet staining based method; format: functional
[6] = test system: Staphylococcus aureus; experiment: Inhibition of planktonic growth of Staphylococcus aureus SH1000; format: organism-based
[7] = test system: A-375; experiment: Antiproliferative activity against human A375 cells after 48 hrs by MTT assay; format: functional, cell-based; conditions: A-375, 48 h
[8] = test system: MIA PaCa-2; experiment: Antiproliferative activity against human MIAPaCa2 cells after 48 hrs by MTT assay; format: functional, cell-based; conditions: MIA PaCa-2, 48 h
[9] = test system: A-375; experiment: Cytotoxicity against human A375 cells assessed as reduction in cell viability at IC50 concentration after 24 hrs by calcein AM-dye based assay; format: functional
[10] = test system: MIA PaCa-2; experiment: Cytotoxicity against human MIAPaCa2 cells assessed as reduction in cell viability at IC50 concentration after 24 hrs by calcein AM-dye based assay; format: functional
[11] = test system: A-375; experiment: Antiproliferative activity against human A375 cells assessed as reduction in colony forming ability at IC50 concentration after 10 to 14 days by crystal violet-staining based assay; format: functional, cell-based
[12] = test system: MIA PaCa-2; experiment: Antiproliferative activity against human MIAPaCa2 cells assessed as reduction in colony forming ability at IC50 concentration after 10 to 14 days by crystal violet-staining based assay; format: functional, cell-based
[13] = test system: A-375; experiment: Cell cycle arrest in human A375 cells assessed as accumulation at subG1 phase at IC50 concentration after 48 hrs by propidium iodide staining based flow cytometry (reference value: 1.1 +/- 0.4%); format: functional
[14] = test system: A-375; experiment: Cell cycle arrest in human A375 cells assessed as accumulation at G0/G1 phase at IC50 concentration after 48 hrs by propidium iodide staining based flow cytometry (reference value: 64.18 +/- 2.6%); format: functional
[15] = test system: A-375; experiment: Cell cycle arrest in human A375 cells assessed as accumulation at S phase at IC50 concentration after 48 hrs by propidium iodide staining based flow cytometry (reference value: 30.48 +/- 1.4%); format: functional
[16] = test system: A-375; experiment: Cell cycle arrest in human A375 cells assessed as accumulation at G2/M phase at IC50 concentration after 48 hrs by propidium iodide staining based flow cytometry (reference value: 8.18 +/- 2.2%); format: functional
[17] = test system: MIA PaCa-2; experiment: Cell cycle arrest in human MIAPaCa2 cells assessed as accumulation at subG1 phase at IC50 concentration after 48 hrs by propidium iodide staining based flow cytometry (reference value: 1.53 +/- 0.4%); format: functional
[18] = test system: MIA PaCa-2; experiment: Cell cycle arrest in human MIAPaCa2 cells assessed as accumulation at G0/G1 phase at IC50 concentration after 48 hrs by propidium iodide staining based flow cytometry (reference value: 66.05 +/- 2.2%); format: functional
[19] = test system: MIA PaCa-2; experiment: Cell cycle arrest in human MIAPaCa2 cells assessed as accumulation at S phase at IC50 concentration after 48 hrs by propidium iodide staining based flow cytometry (reference value: 17.29 +/- 1.8%); format: functional
[20] = test system: MIA PaCa-2; experiment: Cell cycle arrest in human MIAPaCa2 cells assessed as accumulation at G2/M phase at IC50 concentration after 48 hrs by propidium iodide staining based flow cytometry (reference value: 16.66 +/- 0.8%); format: functional

How did the MBIC50 [1] turn out when `Nc1nc(Cc2ccccc2)c(-c2ccccc2Br)n1CC(=O)Nc1ccccc1` was run?
The MBIC50 was >400 µM.

What about the IC50 [2] of the same compound?
The IC50 was > 400 µM.

What about the MBIC50 [3] of the same compound?
The MBIC50 was >400 µM.

And the IC50 [4]?
Its IC50 is > 400 µM.

What about the MBIC50 [5] of the same compound?
The MBIC50 was >400 µM.

And the IC50 [6]?
Its IC50 is > 400 µM.

And the IC50 [7]?
The IC50 was 5.2 µM.

And the IC50 [8]?
Its IC50 is 5.7 µM.

How did the MBIC50 [1] turn out when `CCCCCc1nc(N)n(CC(=O)Nc2ccc(C)cc2)c1-c1ccccc1Br` was run?
Its MBIC50 is 42.4 µM.

And the IC50 [2]?
Its IC50 is 76 µM.

What about the MBIC50 [3] of the same compound?
The MBIC50 was 31.5 µM.

And the IC50 [4]?
Its IC50 is 200 µM.

What about the MBIC50 [5] of the same compound?
The MBIC50 was 29.8 µM.

What about the IC50 [6] of the same compound?
The IC50 was 33.2 µM.

What about the IC50 [7] of the same compound?
The IC50 was 4.3 µM.

What about the IC50 [8] of the same compound?
Its IC50 is 5.6 µM.

For `Cc1ccc(NC(=O)Cn2c(N)nc(CC3CCCC3)c2-c2ccccc2Br)cc1`, which MBIC50 [1] is on record?
Its MBIC50 is >400 µM.

And the IC50 [2]?
The IC50 was > 400 µM.

What about the MBIC50 [3] of the same compound?
The MBIC50 was >400 µM.

What about the IC50 [4] of the same compound?
The IC50 was > 400 µM.

What about the MBIC50 [5] of the same compound?
Its MBIC50 is 289.6 µM.

And the IC50 [6]?
Its IC50 is > 400 µM.

What about the IC50 [7] of the same compound?
The IC50 was 47.8 µM.

What about the IC50 [8] of the same compound?
The IC50 was 80.5 µM.

Which MBIC50 [1] does the source give for `CCCCCCCc1nc(N)n(CC(=O)Nc2ccccc2)c1-c1ccccc1Br` here?
Its MBIC50 is 221.9 µM.

And the IC50 [2]?
The IC50 was > 400 µM.

What about the MBIC50 [3] of the same compound?
The MBIC50 was 114.8 µM.

What about the IC50 [4] of the same compound?
Its IC50 is > 400 µM.

What about the MBIC50 [5] of the same compound?
Its MBIC50 is 18.1 µM.

What about the IC50 [6] of the same compound?
Its IC50 is 70.8 µM.

And the IC50 [7]?
Its IC50 is 9.2 µM.

What about the IC50 [8] of the same compound?
The IC50 was 7.9 µM.

What does the source list for `CC(C)(C)c1ccc(Cc2nc(N)n(CC(=O)Nc3ccc([N+](=O)[O-])cc3)c2-c2ccccc2Br)cc1`?
MBIC50 [1]: >400 µM; IC50 [2]: > 400 µM; MBIC50 [3]: >400 µM; IC50 [4]: > 400 µM; MBIC50 [5]: >400 µM; IC50 [6]: > 400 µM

How did the MBIC50 [1] turn out when `O=C(N/N=C/c1ccc([N+](=O)[O-])o1)c1ccc(O)cc1` [NIFUROXAZIDE] was run?
The MBIC50 was >400 µM.

And the IC50 [2]?
Its IC50 is > 400 µM.

What about the MBIC50 [3] of the same compound?
The MBIC50 was >400 µM.

What about the IC50 [4] of the same compound?
Its IC50 is > 400 µM.

And the MBIC50 [5]?
The MBIC50 was >400 µM.

And the IC50 [6]?
Its IC50 is > 400 µM.

Which results are given for `Cc1ccc(NC(=O)Cn2c(N)nc(Cc3ccc(C(C)(C)C)cc3)c2-c2ccccc2Br)cc1`?
MBIC50 [1]: >400 µM; IC50 [2]: > 400 µM; MBIC50 [3]: 17.6 µM; IC50 [4]: > 400 µM; MBIC50 [5]: 3.9 µM; IC50 [6]: 7.9 µM; IC50 [7]: 1.4 µM; IC50 [8]: 3.4 µM

Which MBIC50 [1] does the source give for `CCCCCCc1nc(N)n(CC(=O)Nc2ccccc2)c1-c1ccccc1Br` here?
The MBIC50 was 50.7 µM.

What about the IC50 [2] of the same compound?
Its IC50 is 119 µM.

And the MBIC50 [3]?
Its MBIC50 is 35.7 µM.

And the IC50 [4]?
The IC50 was > 400 µM.

And the MBIC50 [5]?
Its MBIC50 is 6.6 µM.

And the IC50 [6]?
The IC50 was 16.3 µM.

What about the IC50 [7] of the same compound?
Its IC50 is 5.7 µM.

And the IC50 [8]?
The IC50 was 8.6 µM.

Which MBIC50 [1] does the source give for `Cc1ccc(NC(=O)Cn2c(N)nc(CC3CC3)c2-c2ccccc2Br)cc1` here?
The MBIC50 was 16 µM.

What about the IC50 [2] of the same compound?
The IC50 was 23.6 µM.

What about the MBIC50 [3] of the same compound?
Its MBIC50 is 21.3 µM.

And the IC50 [4]?
Its IC50 is 24.5 µM.

And the MBIC50 [5]?
The MBIC50 was 21.9 µM.

And the IC50 [6]?
Its IC50 is 30.6 µM.

And the IC50 [7]?
Its IC50 is 2.6 µM.

And the IC50 [8]?
The IC50 was 3.5 µM.

With `CCCCCCc1nc(N)n(CC(=O)Nc2ccc(C)cc2)c1-c1ccccc1Br` as the compound, how does the MBIC50 [1] read?
The MBIC50 was 29.5 µM.

What about the IC50 [2] of the same compound?
Its IC50 is 49.6 µM.

What about the MBIC50 [3] of the same compound?
The MBIC50 was 21.8 µM.

And the IC50 [4]?
Its IC50 is > 400 µM.

And the MBIC50 [5]?
The MBIC50 was 12.6 µM.

And the IC50 [6]?
The IC50 was 23.1 µM.

And the IC50 [7]?
The IC50 was 5.1 µM.

What about the IC50 [8] of the same compound?
Its IC50 is 6.5 µM.

Which MBIC50 [1] does the source give for `COc1ccc(Cc2nc(N)n(CC(=O)Nc3ccccc3)c2-c2ccccc2Br)cc1` here?
Its MBIC50 is 12.6 µM.

And the IC50 [2]?
The IC50 was 13.1 µM.

What about the MBIC50 [3] of the same compound?
The MBIC50 was 17 µM.

And the IC50 [4]?
The IC50 was 46.4 µM.

What about the MBIC50 [5] of the same compound?
The MBIC50 was 4.3 µM.

And the IC50 [6]?
Its IC50 is 23.3 µM.

What about the IC50 [7] of the same compound?
The IC50 was 1.4 µM.

And the IC50 [8]?
Its IC50 is 3.2 µM.

What about the Activity [9] of the same compound?
The Activity was “Active”.

What about the Activity [10] of the same compound?
The Activity was “Active”.

What about the Activity [11] of the same compound?
Its Activity is “Active”.

And the Activity [12]?
Its Activity is “Active”.

What about the Activity [13] of the same compound?
The Activity was 19.88%.

What about the Activity [14] of the same compound?
The Activity was 43.56%.

What about the Activity [15] of the same compound?
Its Activity is 32.1%.

And the Activity [16]?
Its Activity is 55.33%.

What about the Activity [17] of the same compound?
Its Activity is 11.21%.

And the Activity [18]?
Its Activity is 50.41%.

And the Activity [19]?
The Activity was 24.5%.

And the Activity [20]?
Its Activity is 40.45%.

What does the source list for `Cc1ccc(NC(=O)Cn2c(N)nc(CC3CCCCC3)c2-c2ccccc2Br)cc1`?
MBIC50 [1]: >400 µM; IC50 [2]: > 400 µM; MBIC50 [3]: >400 µM; IC50 [4]: > 400 µM; MBIC50 [5]: >400 µM; IC50 [6]: > 400 µM; IC50 [7]: 17.5 µM; IC50 [8]: 48.8 µM

Which MBIC50 [1] does the source give for `O=c1cc(-c2ccccc2)oc2cc(O)c(O)c(O)c12` [BAICALEIN] here?
Its MBIC50 is >400 µM.

What about the IC50 [2] of the same compound?
Its IC50 is > 400 µM.

What about the MBIC50 [3] of the same compound?
Its MBIC50 is >400 µM.

And the IC50 [4]?
Its IC50 is > 400 µM.

And the MBIC50 [5]?
The MBIC50 was 77.5 µM.

And the IC50 [6]?
Its IC50 is > 400 µM.

`Nc1nc(CC2CC2)c(-c2ccccc2Br)n1CC(=O)Nc1ccccc1` was tested. Which MBIC50 [1] did it give?
Its MBIC50 is 86.3 µM.

What about the IC50 [2] of the same compound?
The IC50 was 155 µM.

What about the MBIC50 [3] of the same compound?
The MBIC50 was 107.6 µM.

And the IC50 [4]?
Its IC50 is > 400 µM.

What about the MBIC50 [5] of the same compound?
The MBIC50 was 29.2 µM.

What about the IC50 [6] of the same compound?
The IC50 was 130 µM.

What about the IC50 [7] of the same compound?
The IC50 was 5.8 µM.

What about the IC50 [8] of the same compound?
The IC50 was 6.9 µM.
